Results: US10640533B2, “Epoxyketone compounds for enzyme inhibition” (CENTRAX INTERNATIONAL, INC., priority 2014, dated 2020)
Values after ≈ are worked out from the molar mass of the structure shown. Where two headings read alike, the source gives them in different places.

Assays:
[1] = Aqueous solubility of the compounds; format: physicochemical; settings: 50 mM citrate buffer, pH 4, aqueous buffer, thermodynamic from solid, 50 mM citrate pH4.0, 25° C.
Protocol: To determine the solubility of the compounds, 1-5 mg of a compound was weighed into a vial. 1 mL of aqueous buffer (50 mM citrate at pH4.0) was added. The vial was shaken at 25° C. for 24 hours and then centrifuged for 10 min at 10000 rpm. The supernatant was filtered through a 0.45 μm membrane filter and analyzed for the concentration of the compound. In certain embodiments, the aqueous solubility of the compounds is described herein in Table 1.

[2] = target: Constitutive 20S proteasome peptidylglutamyl peptide hydrolyzing (PGPH) activity (Homo sapiens (Human), UniProt P28072+Q99436); assay: Constitutive 20S proteasome PGPH activity inhibition, fluorogenic substrate Z-Leu-Leu-Glu-AMC; format: biochemical; settings: purified human 20S proteasome, room temperature, one hour
Protocol: (§1) Inhibition of the 20S proteasome can be determined by methods and assays known in the art, for example, as disclosed by Stein et al., Biochemistry (1996), 35, 3899-3908; by Lightcap et al., Clinical Chemistry, 2000, 46, 673-683; by Kisselev et al., Journal of Biological Chemistry. (2006), 281, 8582-8590 and in U.S. application Ser. No. 09/569,748. The chymotrypsin-like (CT-L), peptidylglutamyl peptide hydrolyzing (PGPH) and trypsin-like (T-L) activities of the 20S proteasome are measured with a fluorogenic substrate assay method using succinyl-Leu-Leu-Val-Tyr-AMC, Z-Leu-Leu-Glu-AMC and Boc-Leu-Arg-Arg-AMC, respectively, as the substrates in an assay buffer. The free fluorophore 7-Amino-4-methylcoumarin (AMC) after cleavage from the substrates is quantified using a fluorometer and activity of CT-L, PGPH and T-L of 20S proteasome is determined.
(§2) Inhibition of the chymotrypsin-like (CT-L), peptidylglutamyl peptide hydrolyzing activity (PGPH), and trypsin-like (T-L) activities of the 20S proteasome in enzymatic assays were determined using succinyl-Leu-Leu-Val-Tyr-AMC (10 μmol/L), Z-Leu-Leu-Glu-AMC (10 μmol/L) and Boc-Leu-Arg-Arg-AMC (50 μmol/L), respectively, as the substrates with purified human 20S proteasome at 2, 4 and 8 nmol/L, respectively, in the assay buffer containing 25 mM HEPES (pH7.5), 0.5 mM EDTA, 0.002% sodium dodecyl sulfate (SDS) and 0.05% NP-40. Stock solutions of the 20S proteasome inhibitors disclosed herein were prepared in dimethyl sulfoxide (DMSO) and the final DMSO concentration in the assay mixture was 1%. Reaction was conducted at room temperature for one hour. Proteasome activity was measured based on detection of the fluorophore 7-Amino-4-methylcoumarin (AMC) after cleavage from the substrates with a plate-based spectrofluorometer.

[3] = target: Constitutive 20S proteasome chymotrypsin-like (CT-L) activity (Homo sapiens (Human), UniProt P20618+P28074); assay: Constitutive 20S proteasome CT-L activity inhibition, fluorogenic substrate succinyl-Leu-Leu-Val-Tyr-AMC; format: biochemical
Protocol: as §1, §2

[4] = target: Constitutive 20S proteasome trypsin-like (T-L) activity (Homo sapiens (Human), UniProt P49720+Q99436); assay: Constitutive 20S proteasome T-L activity inhibition, fluorogenic substrate Boc-Leu-Arg-Arg-AMC; format: biochemical
Protocol: as §1, §2

[5] = target: 20S Immunoproteasome peptidylglutamyl peptide hydrolyzing (PGPH) activity (Homo sapiens (Human), UniProt P28065+P40306); assay: 20S immunoproteasome PGPH activity inhibition, fluorogenic substrate Z-Leu-Leu-Glu-AMC; format: biochemical; settings: purified human 20S proteasome, room temperature, one hour
Protocol: as §1, §2

[6] = target: 20S Immunoproteasome trypsin-like (T-L) activity (Homo sapiens (Human), UniProt P40306+P49720); assay: 20S immunoproteasome T-L activity inhibition, fluorogenic substrate Boc-Leu-Arg-Arg-AMC; format: biochemical; settings: purified human 20S proteasome, room temperature, one hour
Protocol: as §1, §2

[7] = target: 20S Immunoproteasome chymotrypsin-like (CT-L) activity (Homo sapiens (Human), UniProt P20618+P28062); assay: 20S immunoproteasome CT-L activity inhibition, fluorogenic substrate succinyl-Leu-Leu-Val-Tyr-AMC; format: biochemical; settings: purified human 20S proteasome, room temperature, one hour
Protocol: as §1, §2

[8] = form of 20S proteasome not stated, 'below about'
[9] = purified human 20S proteasome, room temperature, one hour, read-out: Proteasome inhibition IC50 (nM) Constitutive 20S proteasome CT-L
[10] = purified human 20S proteasome, room temperature, one hour, read-out: Proteasome inhibition IC50 (nM) Constitutive 20S proteasome T-L
[11] = form of 20S proteasome not stated, 'below about', read-out: concentration showing inhibition of T-L activity of the 20S proteasome

Compound	solubility at 24 h [1] [µg/mL]	IC50 [2] [nM]	IC50 [3, 8] [nM]	IC50 [3, 9] [nM]	IC50 [4, 10] [nM]	IC50 [5] [nM]	IC50 [6] [nM]	IC50 [7] [nM]	IC50 [4, 11] [nM]
CC(C)C[C@H](NC(=O)[C@H](CCc1ccccc1)NC(=O)c1cc(CN2CCOCC2)on1)C(=O)N[C@@H](Cc1ccccc1)C(=O)[C@@]1(C)CO1 [CX13-105]	21 (≈ 31.2 µM)	> 20000	< 5	0.97	> 20000	> 20000	> 20000	1.34	–
CC(C)C[C@H](NC(=O)[C@H](CCc1ccccc1)NC(=O)CN1CCOCC1)C(=O)N[C@@H](Cc1ccncc1)C(=O)[C@@]1(C)CO1 [CX13-109]	3490 (≈ 5740 µM)	> 20000	–	> 500	> 20000	> 20000	> 20000	> 500	–
CC(=O)N[C@@H](CCc1ccccc1)C(=O)N[C@@H](Cc1ccncc1)C(=O)N[C@@H](CC(C)C)C(=O)[C@@]1(C)CO1 [CX13-130]	1360 (≈ 2600 µM)	> 20000	< 100	62.4	3600	> 20000	1650	248	–
CC(C)C[C@H](NC(=O)[C@H](Cc1ccncc1)NC(=O)[C@H](CCc1ccccc1)NC(=O)Cc1ccc(CN2CCOCC2)cc1)C(=O)[C@@]1(C)CO1 [CX13-133]	6360 (≈ 9110 µM)	> 20000	< 5	3.58	443	> 20000	455	4.65	< 500
Cc1cc(C(=O)N[C@@H](CCc2ccccc2)C(=O)N[C@@H](Cc2ccncc2)C(=O)N[C@@H](CC(C)C)C(=O)[C@@]2(C)CO2)no1 [CX13-135]	1160 (≈ 1970 µM)	> 20000	< 10	6.56	13400	> 20000	6450	28.1	–
Cc1ncc(C(=O)N[C@@H](CCc2ccccc2)C(=O)N[C@@H](Cc2ccncc2)C(=O)N[C@@H](CC(C)C)C(=O)[C@@]2(C)CO2)s1 [CX13-137]	910 (≈ 1500 µM)	> 20000	< 50	13.5	11900	> 20000	5860	60.4	–
COC[C@H](NC(=O)c1cc(CN2CCOCC2)on1)C(=O)N[C@@H](Cc1ccncc1)C(=O)N[C@@H](CC(C)C)C(=O)[C@@]1(C)CO1 [CX13-500]	> 2350	> 20000	–	121	> 20000	> 20000	> 20000	170	–
CC(C)C[C@H](NC(=O)[C@H](Cc1ccccc1)NC(=O)[C@H](CCc1ccccc1)NC(=O)c1cc(CN2CCOCC2)on1)C(=O)[C@@]1(C)CO1 [CX13-600]	20 (≈ 29.7 µM)	> 20000	< 5	4.28	> 20000	> 20000	19900	7.41	–
COC[C@H](NC(=O)[C@H](CCc1ccccc1)NC(=O)c1cc(CN2CCOCC2)on1)C(=O)N[C@@H](CC(C)C)C(=O)[C@@]1(C)CO1 [CX13-601]	480 (≈ 765 µM)	> 20000	< 50	16	> 20000	> 20000	> 20000	31.7	–
C[C@]1(C(=O)[C@H](Cc2ccccc2)NC(=O)[C@H](Cc2cscn2)NC(=O)[C@H](CCc2ccccc2)NC(=O)c2cc(CN3CCOCC3)on2)CO1 [CX13-605]	120 (≈ 168 µM)	> 20000	< 10	12.2	> 20000	> 20000	> 20000	6.81	–
COC[C@H](NC(=O)[C@H](CCc1ccccc1)NC(=O)Cc1ccc(CN2CCOCC2)cc1)C(=O)N[C@@H](CC(C)C)C(=O)[C@@]1(C)CO1 [CX13-606]	3730 (≈ 5730 µM)	> 20000	< 10	6.1	297	> 20000	186	59.3	< 500

The remaining lines, values ahead:

solubility at 24 h [1] [µg/mL]	IC50 [2] [nM]	IC50 [3, 8] [nM]	IC50 [3, 9] [nM]	IC50 [4, 10] [nM]	IC50 [5] [nM]	IC50 [6] [nM]	IC50 [7] [nM]	IC50 [4, 11] [nM]	Compound
1440 (≈ 2130 µM)	> 20000	< 50	33.3	> 20000	> 20000	> 20000	33.6	–	CC(C)C[C@H](NC(=O)[C@H](CCc1ccccc1)NC(=O)c1cc(CN2CCOCC2)on1)C(=O)N[C@@H](Cc1ccncc1)C(=O)[C@@]1(C)CO1 [CX13-104]
83 (≈ 137 µM)	> 20000	< 5	4.74	9950	> 20000	6220	5.1	–	CC(C)C[C@H](NC(=O)[C@H](CCc1ccccc1)NC(=O)CN1CCOCC1)C(=O)N[C@@H](Cc1ccccc1)C(=O)[C@@]1(C)CO1 [CX13-107]
4480 (≈ 8460 µM)	> 20000	–	113	> 20000	> 20000	> 20000	392	–	COC[C@H](NC(=O)c1cc(C)on1)C(=O)N[C@@H](Cc1ccncc1)C(=O)N[C@@H](CC(C)C)C(=O)[C@@]1(C)CO1 [CX13-501]
20 (≈ 33.7 µM)	> 20000	< 10	9.75	15800	> 20000	> 20000	15.3	–	COC[C@H](NC(=O)[C@H](CCc1ccccc1)NC(=O)c1cnc(C)s1)C(=O)N[C@@H](Cc1ccccc1)C(=O)[C@@]1(C)CO1 [CX13-705]
570 (≈ 1070 µM)	–	–	–	–	–	–	–	–	COC[C@H](NC(=O)c1cnc(C)s1)C(=O)N[C@@H](COC)C(=O)N[C@@H](Cc1ccccc1)C(=O)[C@@]1(C)CO1 [CX13-709]
